Data published in US5010104A, “Tricyclic compounds” (Kyowa Hakko Kogyo Co., Ltd., priority 1987, dated 1991).

Experiments:
[1] = molecular target: T1, TXA2 /prostaglandin H2 receptor (Cavia porcellus, UniProt A0A286Y4I8); experiment: Test on Anti-platelet Activity (TXA2 Antagonizing Test): inhibition of U-46619-induced platelet aggregation in guinea pig platelet rich plasma; type: cell-based; conditions: minimum concentration inhibiting platelet aggregation by 30% or more; U-46619 0.5-1 μM; guinea pig PRP; 3 minutes pretreatment
T1 construct: platelet rich plasma (PRP) was collected; endogenous in cells; host or cells: platelets in platelet rich plasma from male guinea pigs (Hartley strain)
T1 sequence (A0A286Y4I8 1-347): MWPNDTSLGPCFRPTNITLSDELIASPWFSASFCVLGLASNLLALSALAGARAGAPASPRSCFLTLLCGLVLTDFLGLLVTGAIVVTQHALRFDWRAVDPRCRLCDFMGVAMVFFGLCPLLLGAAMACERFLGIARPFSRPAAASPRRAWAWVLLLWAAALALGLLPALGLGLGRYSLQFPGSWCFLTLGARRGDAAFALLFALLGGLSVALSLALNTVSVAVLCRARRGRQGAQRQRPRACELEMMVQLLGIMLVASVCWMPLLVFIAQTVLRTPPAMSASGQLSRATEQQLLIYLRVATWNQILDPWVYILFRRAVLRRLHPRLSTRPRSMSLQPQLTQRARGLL
Description: Test on Anti-platelet Activity (TXA2 Antagonizing Test)
Using guinea pig platelet, influence of the compounds in accordance with the present invention on platelet aggregation induced by U-46619 (9,11-dideoxy-9α,11a-methanoepoxyprostaglandin F2 α; manufactured by Cayman Chemica Co., Ltd. ) which was a TXA2 /prostaglandin H2 receptor stimulant was examined.
Male guinea pig (Hartlet strain; body weight, 300 to 600 g) was anesthesized by intraperitoneal administration of sodium pentobarbital (30 mg/kg) and blood was collected from the descending aorta of the abdomen with a 1/10 volume of sodium citrate. By centrifugation (KC-70: manufactured by Kubota Co., Ltd.) at 800 rpm for 10 minutes, platelet rich plasma (PRP) was collected. Platelet aggregation induced by U-46619 (0.5-1 μM) was determined by photometry [Born, G. V. R. et al., Nature (London), 194, 927-929 (1962)]. A test compound was pretreated before 3 minutes and an ability of inhibiting aggregation was measured. The minimum concentration of inhibiting platelet aggregation by 30% or more was defined as the minimum effective concentration (MEC) of the test compound.

dd strain male mice = experiment: Acute Toxicity Test: minimum lethal dose, mortality observed for seven days; type: in vivo; conditions: mortality over seven days; for Acute Toxicity (MLD) ip: intraperitoneal (ip; 100 mg/kg); for Acute Toxicity (MLD) po: oral (po; 300 mg/kg)
Description: Using three dd strain male mice weighing 20±1 g, a test compound was orally (po; 300 mg/kg) or intraperiotoneally (ip; 100 mg/kg) administered. MLD (the minimum lethal dose) was determined by observing the mortality for seven days after administration.

O=C(O)COc1ccc(CCNS(=O)(=O)c2ccccc2)cc1 [BM13177, reference compound]
TXA2 Antagonizing Activity (MEC) [1]: 3 µg/mL
Acute Toxicity (MLD) ip (dd strain male mice): > 100 mg/kg
Acute Toxicity (MLD) po (dd strain male mice): > 300 mg/kg

O=C(O)c1ccc2c(c1)C(SCCNS(=O)(=O)c1ccccc1)c1cc(Br)ccc1CO2 (stereo not drawn) [Compound 6b, 9-Bromo-11-[2-[(phenylsulfonyl)amino]ethyl]thio-6,11-dihydrodibenz[b,e]oxepin-2-carboxylic acid]
TXA2 Antagonizing Activity (MEC) [1]: 0.03 µg/mL
Acute Toxicity (MLD) ip (dd strain male mice): > 100 mg/kg
Acute Toxicity (MLD) po (dd strain male mice): > 300 mg/kg

O=C(O)c1ccc2c(c1)C(SCCNS(=O)(=O)c1ccc(F)cc1)c1ccccc1CO2 (stereo not drawn) [Compound 10b, 11-[2-[(4-Fluorophenylsulfonyl)amino]ethyl]thio-6,11-dihydrodibenz[b,e]oxepin-2-carboxylic acid]
TXA2 Antagonizing Activity (MEC) [1]: 0.3 µg/mL
Acute Toxicity (MLD) ip (dd strain male mice): > 100 mg/kg
Acute Toxicity (MLD) po (dd strain male mice): > 300 mg/kg

O=C(O)c1ccc2c(c1)C(SCCNS(=O)(=O)c1cccs1)c1ccccc1CO2 (stereo not drawn) [Compound 15b, 11-[2-[(2-Thienylsulfonyl)amino]ethyl]thio-6,11-dihydrodibenz[b,e]oxepin-2-carboxylic acid]
TXA2 Antagonizing Activity (MEC) [1]: 0.3 µg/mL
Acute Toxicity (MLD) ip (dd strain male mice): > 100 mg/kg
Acute Toxicity (MLD) po (dd strain male mice): > 300 mg/kg

O=C(O)c1ccc2c(c1)C(SCCNS(=O)(=O)c1cccc3cccnc13)c1ccccc1CO2 (stereo not drawn) [Compound 16b, 11-[2-[(8-Quinolylsulfonyl)amino]ethyl]thio-6,11-dihydrodibenz[b,e]oxepin-2-carboxylic acid]
TXA2 Antagonizing Activity (MEC) [1]: 3 µg/mL
Acute Toxicity (MLD) ip (dd strain male mice): > 100 mg/kg
Acute Toxicity (MLD) po (dd strain male mice): > 300 mg/kg

COc1ccccc1C(=O)NCCSC1c2ccccc2COc2ccc(C(=O)O)cc21 (stereo not drawn) [Compound 33b, 11-[2-[(2-Methoxybenzoyl)amino]ethyl]thio-6,11-dihydrodibenz[b,e]oxepin-2-carboxylic acid]
TXA2 Antagonizing Activity (MEC) [1]: 0.3 µg/mL
Acute Toxicity (MLD) ip (dd strain male mice): > 100 mg/kg
Acute Toxicity (MLD) po (dd strain male mice): > 300 mg/kg

O=C(O)c1ccc2c(c1)C(SCCNS(=O)(=O)c1ccccc1)c1ccccc1CS2 (stereo not drawn) [Compound 55b, 11-[2-[(Phenylsulfonyl)amino]ethyl]thio-6,11-dihydrodibenzo[b,e]thiepin-2carboxylic acid]
TXA2 Antagonizing Activity (MEC) [1]: 3 µg/mL
Acute Toxicity (MLD) ip (dd strain male mice): > 100 mg/kg
Acute Toxicity (MLD) po (dd strain male mice): > 300 mg/kg

O=C(O)Cc1ccc2c(c1)/C(=C/CCNS(=O)(=O)c1ccccc1)c1ccccc1CO2 [Compound E-29b]
TXA2 Antagonizing Activity (MEC) [1]: 1 µg/mL
Acute Toxicity (MLD) ip (dd strain male mice): > 100 mg/kg
Acute Toxicity (MLD) po (dd strain male mice): > 300 mg/kg
